In patent US20230109833A1, “METABOLICALLY STABLE N-ACYLAMINOOXADIAZOLES USEFUL AS ANTIBACTERIAL AGENTS” (MICROBIOTIX, INC., priority 2017, published 2023):
≈ marks a conversion by molar mass, not a printed value.

Assays:
CYP450, 2C19 = CYP450, 2C19 (Homo sapiens, UniProt P33261); conditions: 10 µM
Adrenergic β2 = Adrenergic β2 (Homo sapiens, UniProt P07550); format: binding; conditions: 10 μM compound, Hit Profile Panel
Sodium Channel, Site 2 = format: binding; conditions: rat; 10 μM compound; Hit Profile Panel
Potassium Channel hERG = Potassium Channel hERG (Homo sapiens, UniProt Q12809); conditions: 10 µM
[1] = Single dose PK (IV and PO); format: in vivo; conditions: mice, 10 mg/kg PO
[2] = target: Transporter, Norepinephrine (NET) (Homo sapiens, UniProt P23975); format: binding; conditions: 10 μM compound, Hit Profile Panel
Sequence of Transporter, Norepinephrine (NET) (P23975 whole entry): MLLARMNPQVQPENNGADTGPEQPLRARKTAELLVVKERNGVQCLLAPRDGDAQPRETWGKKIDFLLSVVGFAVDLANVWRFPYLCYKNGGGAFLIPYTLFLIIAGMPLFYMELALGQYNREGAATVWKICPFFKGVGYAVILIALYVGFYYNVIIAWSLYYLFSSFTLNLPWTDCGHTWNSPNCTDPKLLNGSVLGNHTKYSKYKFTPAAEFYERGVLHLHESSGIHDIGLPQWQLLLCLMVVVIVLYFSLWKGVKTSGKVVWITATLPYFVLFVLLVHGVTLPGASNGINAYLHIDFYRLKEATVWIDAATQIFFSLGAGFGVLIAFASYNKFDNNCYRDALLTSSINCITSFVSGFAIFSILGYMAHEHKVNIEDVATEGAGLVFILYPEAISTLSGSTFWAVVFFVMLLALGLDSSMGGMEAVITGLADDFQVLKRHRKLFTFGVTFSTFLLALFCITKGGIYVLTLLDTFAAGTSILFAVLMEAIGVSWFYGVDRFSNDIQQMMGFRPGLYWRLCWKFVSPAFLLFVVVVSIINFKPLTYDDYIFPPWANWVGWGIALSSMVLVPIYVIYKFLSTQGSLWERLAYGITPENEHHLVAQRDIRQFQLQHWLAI

CYP3A4 = target: T1, CYP3A4 (Homo sapiens, UniProt P08684); experiment: CYP450 inhibition; format: biochemical; conditions: 10 μM compound, Hit Profile Panel; for inhibition at 10 µM: read-out: % Inhibition, CYP450, 3A4
T1 construct: purchased BD Gentest Corp., Woburn, Mass
T1 sequence (P08684 whole entry): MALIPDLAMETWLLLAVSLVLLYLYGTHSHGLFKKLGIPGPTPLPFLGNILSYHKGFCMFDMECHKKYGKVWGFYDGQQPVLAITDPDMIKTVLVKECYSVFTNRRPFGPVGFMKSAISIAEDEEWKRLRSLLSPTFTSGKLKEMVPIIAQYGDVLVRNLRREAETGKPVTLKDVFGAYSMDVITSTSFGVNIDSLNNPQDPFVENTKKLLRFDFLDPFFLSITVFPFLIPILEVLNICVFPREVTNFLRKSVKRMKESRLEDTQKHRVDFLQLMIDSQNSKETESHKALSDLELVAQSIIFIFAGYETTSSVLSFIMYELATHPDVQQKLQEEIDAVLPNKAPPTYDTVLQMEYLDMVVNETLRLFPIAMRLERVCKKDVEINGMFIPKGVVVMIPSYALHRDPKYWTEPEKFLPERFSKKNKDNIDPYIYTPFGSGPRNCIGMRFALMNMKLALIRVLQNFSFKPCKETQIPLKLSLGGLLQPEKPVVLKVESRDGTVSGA
Description: (§1) Because inhibition of cytochrome P450 (CYP450) enzymes in vitro is predictive of potential drug interactions in vivo, CYP450 inhibition was measured using commercially available Human Cytochrome P450 kits (BD Gentest Corp., Woburn, Mass.) for the major CYP450s: CYP3A4 and CYP2D6. The assays were performed according to the manufacturer's instructions.

CYP2D6 = target: T2, CYP2D6 (Homo sapiens, UniProt P10635); experiment: CYP450 inhibition; format: biochemical; conditions: 10 μM compound, Hit Profile Panel; for inhibition at 10 µM: read-out: % Inhibition, CYP450, 2D6
T2 construct: purchased BD Gentest Corp., Woburn, Mass
T2 sequence (P10635 whole entry): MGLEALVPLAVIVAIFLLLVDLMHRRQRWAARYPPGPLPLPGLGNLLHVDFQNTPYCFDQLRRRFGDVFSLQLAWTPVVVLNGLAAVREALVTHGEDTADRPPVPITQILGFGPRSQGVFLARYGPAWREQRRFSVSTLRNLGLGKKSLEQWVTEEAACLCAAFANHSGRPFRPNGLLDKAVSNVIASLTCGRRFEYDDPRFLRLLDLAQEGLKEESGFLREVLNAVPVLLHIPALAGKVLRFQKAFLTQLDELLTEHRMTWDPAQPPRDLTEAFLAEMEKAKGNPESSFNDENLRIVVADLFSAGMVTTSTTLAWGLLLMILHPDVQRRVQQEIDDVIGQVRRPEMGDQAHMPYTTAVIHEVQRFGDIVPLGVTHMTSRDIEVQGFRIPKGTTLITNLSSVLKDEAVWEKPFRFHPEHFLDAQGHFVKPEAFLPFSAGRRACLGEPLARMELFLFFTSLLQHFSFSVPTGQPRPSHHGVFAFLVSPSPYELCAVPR
Description: as §1

[3] = test system: MRSA strain BAA-1717 (TCH1516; USA300); experiment: Murine efficacy, neutropenic thigh model; format: in vivo, mouse; conditions: 25 mg/kg PO once 2 h after infection; CFU 24 hrs post dosage; compared to untreated controls
Tolerability studies = format: in vivo; conditions: data not shown
Imidazoline I2, Central = format: binding; conditions: rat; 10 μM compound; Hit Profile Panel
Adrenergic β1 = Adrenergic β1 (Homo sapiens, UniProt P08588); format: binding; conditions: 10 μM compound, Hit Profile Panel
Sequence of Adrenergic β1 (P08588 whole entry): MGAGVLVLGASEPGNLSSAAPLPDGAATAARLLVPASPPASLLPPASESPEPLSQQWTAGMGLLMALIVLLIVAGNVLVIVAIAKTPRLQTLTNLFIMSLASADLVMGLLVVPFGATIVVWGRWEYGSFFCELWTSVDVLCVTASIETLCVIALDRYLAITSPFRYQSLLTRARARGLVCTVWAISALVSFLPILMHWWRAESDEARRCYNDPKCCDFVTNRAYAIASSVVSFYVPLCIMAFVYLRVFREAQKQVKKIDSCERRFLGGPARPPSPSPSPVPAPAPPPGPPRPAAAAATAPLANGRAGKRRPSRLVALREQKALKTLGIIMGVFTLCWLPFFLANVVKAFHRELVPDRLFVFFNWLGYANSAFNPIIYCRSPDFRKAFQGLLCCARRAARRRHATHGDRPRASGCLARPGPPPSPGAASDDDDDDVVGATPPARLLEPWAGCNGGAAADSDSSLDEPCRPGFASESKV

Sigma σ1 = Sigma σ1 (Homo sapiens, UniProt Q99720); format: binding; conditions: 10 μM compound, Hit Profile Panel
Sequence of Sigma σ1 (Q99720 whole entry): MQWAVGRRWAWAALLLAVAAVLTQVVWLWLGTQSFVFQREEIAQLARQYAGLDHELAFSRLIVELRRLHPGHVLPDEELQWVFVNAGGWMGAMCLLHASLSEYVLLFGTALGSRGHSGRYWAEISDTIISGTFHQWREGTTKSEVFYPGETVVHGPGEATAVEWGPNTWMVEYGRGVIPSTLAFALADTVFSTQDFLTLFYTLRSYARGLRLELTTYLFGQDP

Nicotinic Acetylcholine = format: binding; conditions: human; 10 μM compound; Hit Profile Panel
CYP450, 1A2 = CYP450, 1A2 (Homo sapiens, UniProt P05177); conditions: 10 µM
Sequence of CYP450, 1A2 (P05177 whole entry): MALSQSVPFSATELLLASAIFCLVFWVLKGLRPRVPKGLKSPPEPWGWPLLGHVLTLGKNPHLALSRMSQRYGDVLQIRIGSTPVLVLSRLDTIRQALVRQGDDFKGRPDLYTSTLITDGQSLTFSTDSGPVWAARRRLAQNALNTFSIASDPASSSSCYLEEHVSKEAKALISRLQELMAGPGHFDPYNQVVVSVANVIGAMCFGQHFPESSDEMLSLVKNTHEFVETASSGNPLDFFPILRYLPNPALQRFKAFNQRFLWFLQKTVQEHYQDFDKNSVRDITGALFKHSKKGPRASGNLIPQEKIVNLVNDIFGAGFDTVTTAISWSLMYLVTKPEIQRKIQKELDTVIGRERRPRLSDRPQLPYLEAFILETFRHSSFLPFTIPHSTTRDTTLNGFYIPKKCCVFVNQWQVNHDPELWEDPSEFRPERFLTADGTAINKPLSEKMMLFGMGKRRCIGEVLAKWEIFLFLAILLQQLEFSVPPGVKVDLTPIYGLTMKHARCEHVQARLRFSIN

[4] = test system: Glutamate, NMDA, Phencyclidine; format: binding; conditions: rat; 10 μM compound; Hit Profile Panel
[5] = test system: Calcium Channel L-type, Dihydropyridine; format: binding; conditions: rat; 10 μM compound; Hit Profile Panel
Adrenergic α1B = target: T3, Adrenergic α1B (Rattus norvegicus, UniProt P15823); format: binding; conditions: 10 μM compound, Hit Profile Panel
T3 sequence (P15823 1-515): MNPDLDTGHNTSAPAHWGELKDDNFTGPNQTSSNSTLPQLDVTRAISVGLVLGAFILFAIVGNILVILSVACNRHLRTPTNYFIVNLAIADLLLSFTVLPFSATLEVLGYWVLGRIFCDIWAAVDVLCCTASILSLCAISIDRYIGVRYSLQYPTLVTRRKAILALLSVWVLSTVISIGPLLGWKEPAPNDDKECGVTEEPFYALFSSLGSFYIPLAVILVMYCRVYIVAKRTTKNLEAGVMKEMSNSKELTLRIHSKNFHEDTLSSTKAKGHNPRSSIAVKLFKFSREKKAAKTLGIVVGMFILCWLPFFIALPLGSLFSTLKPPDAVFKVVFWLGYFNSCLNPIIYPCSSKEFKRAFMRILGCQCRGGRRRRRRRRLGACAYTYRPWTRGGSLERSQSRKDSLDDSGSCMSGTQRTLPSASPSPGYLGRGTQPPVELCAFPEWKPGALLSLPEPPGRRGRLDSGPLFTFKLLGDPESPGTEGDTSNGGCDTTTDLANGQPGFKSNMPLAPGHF

Phorbol Ester = format: binding; conditions: mouse; 10 μM compound; Hit Profile Panel
CYP450, 2C9 = CYP450, 2C9 (Homo sapiens, UniProt P11712); conditions: 10 µM
hERG potassium channel = hERG potassium channel (Homo sapiens, UniProt Q12809)
Sequence of hERG potassium channel (Q12809 whole entry): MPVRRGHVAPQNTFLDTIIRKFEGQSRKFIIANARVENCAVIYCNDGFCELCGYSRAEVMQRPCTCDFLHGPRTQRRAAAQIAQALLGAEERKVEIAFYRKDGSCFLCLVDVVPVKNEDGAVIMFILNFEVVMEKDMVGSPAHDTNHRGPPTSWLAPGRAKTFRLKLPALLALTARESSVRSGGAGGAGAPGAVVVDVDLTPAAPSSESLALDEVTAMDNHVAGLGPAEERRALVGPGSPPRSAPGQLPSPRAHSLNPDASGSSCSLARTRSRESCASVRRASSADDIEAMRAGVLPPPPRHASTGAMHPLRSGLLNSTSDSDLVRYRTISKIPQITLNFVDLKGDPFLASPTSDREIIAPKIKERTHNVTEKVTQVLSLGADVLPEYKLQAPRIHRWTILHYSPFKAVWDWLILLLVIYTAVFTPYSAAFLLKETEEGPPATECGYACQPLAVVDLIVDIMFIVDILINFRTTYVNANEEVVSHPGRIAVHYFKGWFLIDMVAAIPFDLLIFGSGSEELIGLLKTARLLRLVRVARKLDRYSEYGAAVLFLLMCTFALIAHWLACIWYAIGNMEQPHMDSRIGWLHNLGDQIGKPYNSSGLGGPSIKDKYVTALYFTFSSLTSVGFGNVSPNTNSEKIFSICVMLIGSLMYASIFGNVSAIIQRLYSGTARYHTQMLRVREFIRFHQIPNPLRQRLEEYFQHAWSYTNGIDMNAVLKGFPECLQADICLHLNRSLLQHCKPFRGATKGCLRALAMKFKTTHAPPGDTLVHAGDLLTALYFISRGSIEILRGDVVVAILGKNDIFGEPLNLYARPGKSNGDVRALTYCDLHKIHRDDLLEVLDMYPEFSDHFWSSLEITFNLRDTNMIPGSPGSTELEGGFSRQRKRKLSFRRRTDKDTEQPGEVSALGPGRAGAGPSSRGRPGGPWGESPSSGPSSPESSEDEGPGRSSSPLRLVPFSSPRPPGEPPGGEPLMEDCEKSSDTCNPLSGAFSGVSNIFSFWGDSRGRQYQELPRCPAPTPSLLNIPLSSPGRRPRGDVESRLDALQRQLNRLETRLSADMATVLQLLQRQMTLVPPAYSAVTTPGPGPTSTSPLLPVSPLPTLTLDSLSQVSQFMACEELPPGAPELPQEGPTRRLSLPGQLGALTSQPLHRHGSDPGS

N. gonorrhoeae = experiment: MIC (Table 2B); format: cell-based; conditions: Neisseria gonorrhoeae; Table 2B, strain not given; read-out: N. gonorrhoeae MIC
CYP2C19 = CYP2C19 (Homo sapiens, UniProt P33261)
Sequence of CYP2C19 (P33261 whole entry): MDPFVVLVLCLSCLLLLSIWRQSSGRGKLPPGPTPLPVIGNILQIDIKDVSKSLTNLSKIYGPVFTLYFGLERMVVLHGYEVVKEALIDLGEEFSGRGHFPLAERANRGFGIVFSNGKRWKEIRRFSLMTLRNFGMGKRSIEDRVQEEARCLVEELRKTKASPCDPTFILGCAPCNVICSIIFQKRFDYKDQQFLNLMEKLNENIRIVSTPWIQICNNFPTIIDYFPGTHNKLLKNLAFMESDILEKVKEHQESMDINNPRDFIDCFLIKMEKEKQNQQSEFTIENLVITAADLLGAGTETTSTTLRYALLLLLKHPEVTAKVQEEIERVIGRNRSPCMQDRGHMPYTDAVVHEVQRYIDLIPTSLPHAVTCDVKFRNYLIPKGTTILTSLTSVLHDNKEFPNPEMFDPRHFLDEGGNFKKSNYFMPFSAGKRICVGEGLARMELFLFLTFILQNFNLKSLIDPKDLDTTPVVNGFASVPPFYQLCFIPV

CYP2C9 = CYP2C9 (Homo sapiens, UniProt P11712)
CYP1A2 = CYP1A2 (Homo sapiens, UniProt P05177)
Sequence of CYP1A2 (P05177 whole entry): as the sequence (P05177 whole entry) above

36 mammalian receptors = format: binding; conditions: 10 μM; every receptor of the panel

Sequence of Adrenergic β2 (P07550 whole entry): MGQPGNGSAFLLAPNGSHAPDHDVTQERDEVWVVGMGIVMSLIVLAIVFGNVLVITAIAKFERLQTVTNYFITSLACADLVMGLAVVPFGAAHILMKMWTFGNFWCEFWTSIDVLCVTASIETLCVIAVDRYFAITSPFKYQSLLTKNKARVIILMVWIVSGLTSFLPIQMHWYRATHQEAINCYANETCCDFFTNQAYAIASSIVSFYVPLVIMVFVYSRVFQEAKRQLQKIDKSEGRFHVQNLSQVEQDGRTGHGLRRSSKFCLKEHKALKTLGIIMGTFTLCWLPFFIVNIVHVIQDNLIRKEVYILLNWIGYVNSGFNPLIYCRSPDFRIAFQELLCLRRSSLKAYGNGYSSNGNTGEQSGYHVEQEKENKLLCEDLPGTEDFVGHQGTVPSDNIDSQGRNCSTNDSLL

SMILES	% Inhibition, Sodium Channel, Site 2 (Sodium Channel, Site 2) [%]	% Inhibition, Imidazoline I2, Central (Imidazoline I2, Central) [%]	% Inhibition, Nicotinic Acetylcholine (Nicotinic Acetylcholine) [%]	% Inhibition, Glutamate, NMDA, Phencyclidine [4] [%]	% Inhibition, Calcium Channel L-type, Dihydropyridine [5] [%]	% Inhibition, Phorbol Ester (Phorbol Ester) [%]	inhibition at 10 µM (Adrenergic β2) [%]	inhibition at 10 µM (hERG potassium channel) [%]	inhibition at 10 µM [2] [%]	inhibition at 10 µM (CYP3A4) [%]	inhibition at 10 µM (CYP2D6) [%]	inhibition at 10 µM (Adrenergic β1) [%]	inhibition at 10 µM (Sigma σ1) [%]	inhibition at 10 µM (CYP2C19) [%]	inhibition at 10 µM (CYP2C9) [%]	inhibition at 10 µM (CYP1A2) [%]	inhibition at 10 µM (Adrenergic α1B) [%]	other results
O=C(Nc1nnc(-c2ccc(F)cc2)o1)N1CCc2ccccc2C1 [MBX-4132]	4	33	−8	−3	15	4	–	–	–	–	–	–	–	–	–	–	–	% Inhibition, CYP450, 2C19 (CYP450, 2C19): 44%; % Inhibition, Adrenergic β2 (Adrenergic β2): 36%; % Inhibition, Potassium Channel hERG (Potassium Channel hERG): 64%; bioavailability, available from oral dosing [1]: > 75%; % Inhibition, Transporter, Norepinephrine (NET) [2]: 50%; % Inhibition, CYP450, 3A4 (CYP3A4): 7%; % Inhibition, CYP450, 2D6 (CYP2D6): 10%; drop in CFU/g [3]: > 2 log; elevated single dose tolerability (Tolerability studies; 100 mg/kg, PO, observed 24 h): no effects distinct from vehicle controls; multidose tolerability (Tolerability studies; seven days of dosing at 25 mg/kg, SC, BID, observed 10 days): no effects distinct from vehicle controls; % Inhibition, Adrenergic β1 (Adrenergic β1): −10%; % Inhibition, Sigma σ1 (Sigma σ1): −4%; % Inhibition, CYP450, 1A2 (CYP450, 1A2): 9%; % Inhibition, Adrenergic α1B (Adrenergic α1B): 21%; % Inhibition, CYP450, 2C9 (CYP450, 2C9): 10%
O=C(Nc1nnc(-c2ccc(F)cc2)o1)c1ccc(OC2CCCCC2)cc1 [compound 4292]	−2	10	1	0	23	2	6	8	77	4	2	3	10	9	10	5	3	MIC (N. gonorrhoeae): 0.09 µg/mL (≈ 0.236 µM)
O=C(Nc1nnc(-c2ccc(F)cc2)o1)N1CC=C(C(F)(F)F)CC1 [compound 4347]	−5	−5	−4	5	16	7	8	0	32	9	9	3	-2	8	4	2	7	inhibition of the 36 mammalian receptors (36 mammalian receptors): < 50%
